12 compounds from US9732061B2, “Cinnoline derivatives useful as CB-1 receptor inverse agonists” (Janssen Pharmaceutica NV, priority 2015, dated 2017) can be followed below.

The target in experiment [1] is Human CB1R (Cannabanoid receptor 1) (Homo sapiens (Human), UniProt P21554). The experiment is described as follows: CB-1 in vitro cAMP (HTRF) assay. The format is cell-based. The settings on record: HEK-293 cells stably transfected with human CB1R, 250 nM Forskolin, mean where tested more than once. The source says: (§1) CB1 and CB2 receptors are Gi-coupled GPCR. Activation of CB1 and CB2 receptors results in a decrease in cAMP production. An inverse agonist of the CB1 or CB2 receptor results in the opposite effect, an increase of cAMP production. The principle of this assay is based on HTRF® technology (Homogeneous Time-Resolved Fluorescence). The method is a competitive immunoassay between native cAMP produced by cells and the cAMP labeled with the fluorophore d2. The tracer binding is quantified by a Mab anti-cAMP labeled with Eu3+TBP-NHS Cryptate (supplied as part of the assay kit). The specific signal (i.e. energy transfer) is inversely proportional to the concentration of cAMP in the standard or sample.
(§2) Biological Example 1: CB-1 and CB-2 In Vitro Assay
(§3) Human CB1R (Cannabanoid receptor 1) was stably transfected in HEK-293 cells (DiscoveRx, cat: 93-0200C1). Human CB2R (Cannabanoid receptor 2) was stably transfected in HEK-293 cells (DiscoveRx, cat: 93-0201C1). Cell cultures were maintained in media: DMEM (Invitrogen Cat#12430-054) supplemented with 10% HI FBS (Invitrogen Cat#16140-071), 1% L-glutamine (Invitrogen Cat#25030-081), 0.2 mg/ml Hygromycin B (Invitrogen Cat#10687-010), 600 μg/mL G418 (Invitrogen Cat#10131-035), and 1×Penn/Strep (Invitrogen 15140-122). After cell expansion, aliquots were cryo-stored in media containing 5% DMSO (Pierce Cat#20684).
(§4) One day prior to experiments media was warmed to 37° C. and the cryo-stored cells were thawed in a 37° C. water bath. The cells were then added to media (10× volume) and the mixture was centrifugated at 1000 RPM for 5 min. The supernate was removed and the cells were re-suspended in media. A sample of the cell suspension was evaluated on a Cedex XS automated cell counter (Innovatis Systems) to determine viable cells/ml. Additional media was added to the cells to achieve a final cell density of 4E5 cells/mL. The cells were then plated into 384 well PDL white solid bottom plates (Greiner, Cat#781945) at 20 μL per well using a Multidrop (Thermo Scientific). Cells were removed from Row P (location of cAMP standards). Two columns of cells were plated into a clear bottom 384 well PDL coated plate (Greiner, Cat#781944) to view confluence the day of the assay. The cell plates were lidded and stored for 15 minutes in a hood, then transferred to an incubator (37° C., 5% CO2, 95% humidity) overnight.
(§5) DMSO was added to all wells of 384 well V bottom polystyrene plate (Greiner, Cat#781280) except to columns 1 and 13, rows O and P and wells M13-M23 and N13-N23. Test compounds (60 μL, 10 mM) were added to Column 1 and 13 (A1 through N1 and A13 through L13). Test compounds were serially diluted 1/3 by transferring and mixing 20 μl sample with 40 μL DMSO.
(§6) DMSO (40 μL) was added to wells of 384 well V bottom polystyrene plate: O2 through O11, M14 through M23, N14 through N23, and O14 through O23. AM630 (also known as [6-iodo-2-methyl-1-[2-(4-morpholinyl)ethyl]-1H-indol-3-yl](4-methoxyphenyl)-methanone, Cayman Chemical, Cat#10006974) (60 μL, 10 mM) was added to O1; and 1-(2,4-dichlorophenyl)-7-[(4-fluorophenyl)methylene]-4,5,6,7-tetrahydro-N-1-piperidinyl-1H-indazole-3-carboxamide (60 μL, 10 mM) was added to N13. The control was serially diluted 1/3 by transferring and mixing 20 μl sample with 40 μL DMSO. This process resulted 11 doses per control, 10 mM to […].
(§7) Cells plated the day prior to the assay in clear bottom plates were viewed on an inverse microscope to ensure confluency in the range of 60-75%. […]

Experiment [2] deals with Human CB2R (Cannabanoid receptor 2) (Homo sapiens (Human), UniProt P34972). The experiment is described as follows: CB-2 in vitro cAMP (HTRF) assay. The format is cell-based. The settings on record: HEK-293 cells stably transfected with human CB2R, 250 nM Forskolin, mean where tested more than once.
Excerpt: as §1, §2, §3, §4, §5, §6, §7

Some results are limits rather than exact numbers.

Human CB1R (Cannabanoid receptor 1), sequence (P21554 whole entry): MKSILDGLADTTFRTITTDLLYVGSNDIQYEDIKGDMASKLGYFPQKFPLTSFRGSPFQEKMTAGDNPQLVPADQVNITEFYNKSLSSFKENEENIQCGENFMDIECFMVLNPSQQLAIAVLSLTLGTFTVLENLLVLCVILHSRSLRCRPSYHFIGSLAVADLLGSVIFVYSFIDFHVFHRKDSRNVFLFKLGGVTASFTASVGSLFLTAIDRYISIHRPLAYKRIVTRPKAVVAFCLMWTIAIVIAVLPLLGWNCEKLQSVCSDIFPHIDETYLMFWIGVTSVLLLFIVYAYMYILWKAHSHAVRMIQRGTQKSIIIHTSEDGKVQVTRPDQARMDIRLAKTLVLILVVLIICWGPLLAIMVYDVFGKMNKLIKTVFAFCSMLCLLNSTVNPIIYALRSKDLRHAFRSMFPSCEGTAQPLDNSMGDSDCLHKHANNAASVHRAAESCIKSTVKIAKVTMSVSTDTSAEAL
Human CB2R (Cannabanoid receptor 2), sequence (P34972 whole entry): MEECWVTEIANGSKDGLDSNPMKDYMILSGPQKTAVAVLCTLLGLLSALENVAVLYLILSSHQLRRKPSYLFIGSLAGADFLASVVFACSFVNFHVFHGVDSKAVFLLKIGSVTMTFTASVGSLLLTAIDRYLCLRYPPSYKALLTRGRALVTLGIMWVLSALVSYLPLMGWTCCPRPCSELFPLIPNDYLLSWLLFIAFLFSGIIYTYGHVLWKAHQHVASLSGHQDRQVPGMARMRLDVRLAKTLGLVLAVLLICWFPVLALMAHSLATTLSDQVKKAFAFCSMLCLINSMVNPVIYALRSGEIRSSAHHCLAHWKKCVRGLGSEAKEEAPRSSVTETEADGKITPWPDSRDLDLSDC

`Clc1ccc(C(c2ccc(Cl)cc2)c2ccc3nncc(N4CCN(Cc5ccccc5)CC4)c3c2)cc1` [Compound 22, 4-(4-benzylpiperazin-1-yl)-6-(bis(4-chlorophenyl)methyl)cinnoline]: the results for the 50% effective concentration (EC50) in experiment [1] and in experiment [2] were 6540 nM and greater than 10000 nM, respectively.

`O=S(=O)(N1CCC(Nc2cnnc3ccc(C(c4ccc(F)cc4)c4ccc(F)cc4)cc23)CC1)C(F)(F)F` [Compound 33, 6-(bis(4-fluorophenyl)methyl)-N-(1-(trifluoromethylsulfonyl)piperidin-4-yl)cinnolin-4-amine]: the half-maximal effective concentration (EC50) in experiment [1] turned out to be 79 nM; in experiment [2] it was 4700 nM.

Turning to `Clc1ccc(C(c2ccc(Cl)cc2)c2ccc3nncc(NC4CCN(CCc5ccccc5)CC4)c3c2)cc1` [Compound 30, 6-(bis(4-chlorophenyl)methyl)-N-(1-phenethylpiperidin-4-yl)cinnolin-4-amine], the concentration giving a half-maximal response (EC50) was 643 nM in experiment [1] and greater than 10000 nM in experiment [2].

`O=C(O)c1ccc(CCNc2cnnc3ccc(C(c4ccc(Cl)cc4)c4ccc(Cl)cc4)cc23)cc1` [Compound 37, 4-(2-(6-(bis(4-chlorophenyl)methyl)cinnolin-4-ylamino)ethyl)benzoic acid]: the concentration for a half-maximal effect (EC50) in experiment [1] came out at 5400 nM; in experiment [2], 2790 nM.

For the compound `O=S(=O)(c1ccccc1)N1CCC(Nc2cnnc3ccc(C(c4ccc(Cl)cc4)c4ccc(Cl)cc4)cc23)C1` (stereo not drawn) [Compound 27, 6-(bis(4-chlorophenyl)methyl)-N-(1-(phenylsulfonyl)pyrrolidin-3-yl)cinnolin-4-amine], the 50% effective concentration (EC50) is 272 nM in experiment [1] and 849 nM in experiment [2].

For `O=S(=O)(N1CCC(Nc2cnnc3ccc(C(c4ccc(F)cc4)c4ccc(Cl)cc4)cc23)CC1)C(F)(F)F` (stereo not drawn) [Compound 34, 6-((4-chlorophenyl)(4-fluorophenyl)methyl)-N-(1-(trifluoromethylsulfonyl)piperidin-4-yl)cinnolin-4-amine], the EC50 in experiment [1] is 30 nM; in experiment [2] it was greater than 10000 nM.

Consider `O=S(=O)(c1ccccc1)N1CCC(Nc2cnnc3ccc(C(c4ccc(Cl)cc4)c4ccc(Cl)cc4)cc23)CC1` [Compound 4, 6-(bis(4-chlorophenyl)methyl)-N-(1-(phenylsulfonyl)piperidin-4-yl)cinnolin-4-amine], for which the results for the EC50 in experiment [1] and in experiment [2] were 35 nM and greater than 10000 nM, respectively.

Regarding `COc1ccc(C(c2ccc(Cl)cc2)c2ccc3nncc(NC4CCN(S(=O)(=O)C(F)(F)F)CC4)c3c2)cc1` (stereo not drawn) [Compound 35, 6-((4-chlorophenyl)(4-methoxyphenyl)methyl)-N-(1-(trifluoromethylsulfonyl)piperidin-4-yl)cinnolin-4-amine], the half-maximal effective concentration (EC50) in experiment [1] worked out at 11 nM; in experiment [2] it was 396 nM.

Turning to `O=C(O)c1ccc(S(=O)(=O)N2CCC(Nc3cnnc4ccc(C(c5ccc(Cl)cc5)c5ccc(Cl)cc5)cc34)CC2)cc1` [Compound 10, 4-(4-(6-(bis(4-chlorophenyl)methyl)cinnolin-4-ylamino)piperidin-1-ylsulfonyl)benzoic acid], the results for the 50% effective concentration (EC50) in experiment [1] and in experiment [2] were 302 nM and 1480 nM, respectively.

Take `OC(c1ccc(Cl)cc1)(c1ccc(Cl)cc1)c1ccc2nncc(NCc3cccc(C(F)(F)F)c3)c2c1` [Compound 6, bis(4-chlorophenyl)(4-((3-(trifluoromethyl)benzyl)amino)cinnolin-6-yl)methanol]: the figures for the EC50 in experiment [1] and in experiment [2] were 254 nM and greater than 10000 nM, respectively.

`CC(C)(C)OC(=O)N1CCC(Nc2cnnc3ccc(C(O)(c4ccc(Cl)cc4)c4ccc(Cl)cc4)cc23)CC1` [Compound 2, tert-butyl 4-((6-(bis(4-chlorophenyl)(hydroxy)methyl)cinnolin-4-yl)amino)piperidine-1-carboxylate]: the concentration giving a half-maximal response (EC50) in experiment [1] is 200 nM; in experiment [2], greater than 10000 nM.

In the case of `O=S(=O)(N1CCC(Nc2cnnc3ccc(C(c4ccc(Cl)cc4)c4nccs4)cc23)CC1)C(F)(F)F` (stereo not drawn) [Compound 36, 6-((4-chlorophenyl)(thiazol-2-yl)methyl)-N-(1-(trifluoromethylsulfonyl)piperidin-4-yl)cinnolin-4-amine], the values for the EC50 in experiment [1] and in experiment [2] were 28 nM and 665 nM, respectively.
